Experimental data: patent US9586961B2, “Homopiperazine derivatives as protein tyrosine kinase inhibitors and pharmaceutical use thereof” (LEO PHARMA A/S, priority 2010, dated 2017)

Tests used:
Format in all cases: biochemical
JAK3 = molecular target: T1, JAK3 (Homo sapiens, UniProt P52333); experiment: JAK3 kinase assay (HTRF, inhibition of phosphorylation of a synthetic peptide); settings: catalytic domain, His-tag; 2 μM ATP (Km); read-out: JAK3 kinase inhibitory activity (EC50)
T1 construct: All four purified enzymes contain only the catalytic domain; His (N); purchased Carna Biosciences, Inc; host or cells: baculovirus expression system
T1 sequence (P52333 822-1111 limits assumed): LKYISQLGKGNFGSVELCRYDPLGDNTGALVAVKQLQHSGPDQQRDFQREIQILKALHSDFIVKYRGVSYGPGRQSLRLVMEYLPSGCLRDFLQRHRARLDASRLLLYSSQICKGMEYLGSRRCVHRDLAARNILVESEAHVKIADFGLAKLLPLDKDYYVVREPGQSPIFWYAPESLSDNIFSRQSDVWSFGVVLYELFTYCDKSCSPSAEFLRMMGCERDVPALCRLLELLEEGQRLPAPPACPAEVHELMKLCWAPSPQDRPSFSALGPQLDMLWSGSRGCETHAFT
Procedure, shortened: (§1)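 Baculovirus-expressed catalytic domains (GST-JAK1 aa 850-1154, GST-TYK2 aa 871-1187, His-JAK2, His-JAK3) phosphorylate 1 μM biotin-TK peptide 20-30 min at RT in 50 mM Hepes pH 7.0 with ATP at Km: JAK1 7 μM, JAK2 4 μM, JAK3 2 μM, TYK2 13 μM; 0.75% DMSO. Stopped with EDTA, HTRF read overnight.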

TYK2 = molecular target: T2, TYK2 (Homo sapiens, UniProt P29597); experiment: TYK2 kinase assay (HTRF, inhibition of phosphorylation of a synthetic peptide); settings: catalytic domain aa 871-1187, GST-tag; 13 μM ATP (Km); read-out: TYK2 kinase inhibitory activity (EC50)
T2 construct: JAK1 (aa 850-1154) and TYK2 (aa 871-1187) are expressed with an N-terminally fused GST-tag; GST (N); purchased Carna Biosciences, Inc; host or cells: baculovirus expression system
T2 sequence (P29597 871-1187): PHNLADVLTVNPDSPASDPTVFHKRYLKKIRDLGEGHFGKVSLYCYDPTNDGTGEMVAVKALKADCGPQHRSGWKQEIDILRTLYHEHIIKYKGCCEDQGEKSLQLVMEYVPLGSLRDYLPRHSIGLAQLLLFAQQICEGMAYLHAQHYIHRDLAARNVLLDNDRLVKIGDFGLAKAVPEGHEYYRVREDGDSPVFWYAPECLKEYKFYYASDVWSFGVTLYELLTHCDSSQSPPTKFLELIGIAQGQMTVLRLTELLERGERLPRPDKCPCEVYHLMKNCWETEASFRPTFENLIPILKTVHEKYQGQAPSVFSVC
Procedure, shortened: as §1

JAK1 = molecular target: T3, JAK1 (Homo sapiens, UniProt P23458); experiment: JAK1 kinase assay (HTRF, inhibition of phosphorylation of a synthetic peptide); settings: catalytic domain aa 850-1154, GST-tag; 7 μM ATP (Km); read-out: JAK1 kinase inhibitory activity (EC50)
T3 construct: JAK1 (aa 850-1154) and TYK2 (aa 871-1187) are expressed with an N-terminally fused GST-tag; GST (N); purchased Carna Biosciences, Inc; host or cells: baculovirus expression system
T3 sequence (P23458 850-1154): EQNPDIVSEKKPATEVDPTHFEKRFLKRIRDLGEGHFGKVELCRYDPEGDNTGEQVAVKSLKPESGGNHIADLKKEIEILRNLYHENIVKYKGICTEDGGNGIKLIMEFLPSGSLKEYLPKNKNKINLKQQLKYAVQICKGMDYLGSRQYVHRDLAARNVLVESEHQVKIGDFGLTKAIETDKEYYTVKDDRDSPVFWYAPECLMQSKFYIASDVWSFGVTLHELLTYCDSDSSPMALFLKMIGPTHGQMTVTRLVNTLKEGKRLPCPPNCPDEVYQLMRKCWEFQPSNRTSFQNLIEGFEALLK
Procedure, shortened: as §1

JAK2 = molecular target: T4, JAK2 (Homo sapiens, UniProt O60674); experiment: JAK2 kinase assay (HTRF, inhibition of phosphorylation of a synthetic peptide); settings: catalytic domain, His-tag; 4 μM ATP (Km); read-out: JAK2 kinase inhibitory activity (EC50)
T4 construct: All four purified enzymes contain only the catalytic domain; His (N); purchased Carna Biosciences, Inc; host or cells: baculovirus expression system
T4 sequence (O60674 849-1124 limits assumed): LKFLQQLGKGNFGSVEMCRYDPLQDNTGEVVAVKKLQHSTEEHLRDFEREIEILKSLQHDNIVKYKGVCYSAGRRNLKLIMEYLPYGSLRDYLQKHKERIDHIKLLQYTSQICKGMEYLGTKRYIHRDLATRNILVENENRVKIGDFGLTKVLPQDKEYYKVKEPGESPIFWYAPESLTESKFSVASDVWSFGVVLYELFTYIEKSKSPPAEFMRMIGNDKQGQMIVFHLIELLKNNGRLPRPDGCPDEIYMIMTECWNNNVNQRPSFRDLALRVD
Procedure, shortened: as §1

Row | Structure (SMILES) | EC50 (JAK3) | EC50 (TYK2) | EC50 (JAK1) | EC50 (JAK2)
1 | CCN(CC)S(=O)(=O)N1CCN(c2ncnc3[nH]ccc23)CC2(CC2)C1 [Example 104, N,N-diethyl-5-(7H-pyrrolo[2,3-d]pyrimidin-4-yl)-5,8-diazaspiro[2.6]nonane-8-sulfonamide] | > 1000 nM | > 1000 nM | > 1000 nM | 100 to 1000 nM
2 | CN(C1CCCCC1)S(=O)(=O)N1CCN(c2ncnc3[nH]ccc23)CC2(CC2)C1 [Example 105, N-cyclohexyl-N-methyl-5-(7H-pyrrolo[2,3-d]pyrimidin-4-yl)-5,8-diazaspiro[2.6]nonane-8-sulfonamide] | > 1000 nM | > 1000 nM | 100 to 1000 nM | 100 to 1000 nM
3 | N#Cc1ccc(OCC(=O)N2CCN(c3ncnc4[nH]ccc34)CC3(CC3)C2)cc1 [Example 106, 4-[2-oxo-2-[5-(7H-pyrrolo[2,3-d]pyrimidin-4-yl)-5,8-diazaspiro[2.6]nonan-8-yl]ethoxy]benzonitrile] | 100 to 1000 nM | 100 to 1000 nM | < 100 nM | < 100 nM
4 | c1ccc(CN2CCN(c3ncnc4[nH]ccc34)CC3(CC3)C2)cc1 [Example 107, 4-(5-benzyl-5,8-diazaspiro[2.6]nonan-8-yl)-7H-pyrrolo[2,3-d]pyrimidine] | > 1000 nM | > 1000 nM | > 1000 nM | > 1000 nM
5 | N#Cc1ccc(CCC(=O)N2CCN(c3ncnc4[nH]ccc34)CC3(CC3)C2)cc1 [Example 115, 4-[3-oxo-3-[5-(7H-pyrrolo[2,3-d]pyrimidin-4-yl)-5,8-diazaspiro[2.6]nonan-8-yl]propyl]benzonitrile] | < 100 nM | 100 to 1000 nM | < 100 nM | < 100 nM
6 | N#Cc1cccc(CCC(=O)N2CCN(c3ncnc4[nH]ccc34)CC3(CC3)C2)c1 [Example 116, 3-[3-oxo-3-[5-(7H-pyrrolo[2,3-d]pyrimidin-4-yl)-5,8-diazaspiro[2.6]nonan-8-yl]propyl]benzonitrile] | 100 to 1000 nM | > 1000 nM | 100 to 1000 nM | < 100 nM
7 | N#Cc1csc(C(=O)N2CCCN(c3ncnc4[nH]ccc34)CC23CC3)c1 [Example 119, 5-[5-(7H-pyrrolo[2,3-d]pyrimidin-4-yl)-5,9-diazaspiro[2.6]nonane-9-carbonyl]thiophene-3-carbonitrile] | 100 to 1000 nM | 100 to 1000 nM | < 100 nM | < 100 nM
8 | N#Cc1ccc(C(=O)N2CCCN(c3ncnc4[nH]ccc34)CC23CC3)s1 [Example 120, 5-[5-(7H-pyrrolo[2,3-d]pyrimidin-4-yl)-5,9-diazaspiro[2.6]nonane-9-carbonyl]thiophene-2-carbonitrile] | < 100 nM | 100 to 1000 nM | < 100 nM | < 100 nM
9 | O=C(Cc1ccc(Cl)cc1)N1CCN(c2ncnc3[nH]ccc23)CC2(CC2)C1 [Example 125, 2-(4-chlorophenyl)-1-[5-(7H-pyrrolo[2,3-d]pyrimidin-4-yl)-5,8-diazaspiro[2.6]nonan-8-yl]ethanone] | 100 to 1000 nM | 100 to 1000 nM | < 100 nM | < 100 nM
10 | Cc1cc(C(=O)N2CCCN(c3ncnc4[nH]ccc34)CC23CC3)no1 [Example 141] | 100 to 1000 nM | 100 to 1000 nM | < 100 nM | < 100 nM
11 | O=C(c1csnn1)N1CCCN(c2ncnc3[nH]ccc23)CC12CC2 [Example 142, [5-(7H-pyrrolo[2,3-d]pyrimidin-4-yl)-5,9-diazaspiro[2.6]nonan-9-yl]-(thiadiazol-4-yl)methanone] | 100 to 1000 nM | 100 to 1000 nM | < 100 nM | < 100 nM
12 | O=C(c1ccon1)N1CCCN(c2ncnc3[nH]ccc23)CC12CC2 [Example 153, isoxazol-3-yl-[5-(7H-pyrrolo[2,3-d]pyrimidin-4-yl)-5,9-diazaspiro[2.6]nonan-9-yl]methanone] | 100 to 1000 nM | 100 to 1000 nM | < 100 nM | < 100 nM
13 | O=C(Cc1ccc(F)cc1)N1CCN(c2ncnc3[nH]ccc23)CC2(CC2)C1 [Example 158, 2-(4-fluorophenyl)-1-[5-(7H-pyrrolo[2,3-d]pyrimidin-4-yl)-5,8-diazaspiro[2.6]nonan-8-yl]ethanone] | 100 to 1000 nM | 100 to 1000 nM | < 100 nM | < 100 nM
14 | O=C(c1ccsn1)N1CCCN(c2ncnc3[nH]ccc23)CC12CC2 [Example 201, isothiazol-3-yl-[5-(7H-pyrrolo[2,3-d]pyrimidin-4-yl)-5,9-diazaspiro[2.6]nonan-9-yl]methanone] | 100 to 1000 nM | 100 to 1000 nM | < 100 nM | < 100 nM
15 | O=C(c1cnsn1)N1CCCN(c2ncnc3[nH]ccc23)CC12CC2 [Example 203, [5-(7H-pyrrolo[2,3-d]pyrimidin-4-yl)-5,9-diazaspiro[2.6]nonan-9-yl]-(1,2,5-thiadiazol-3-yl)methanone] | 100 to 1000 nM | 100 to 1000 nM | < 100 nM | < 100 nM
16 | N#Cc1c[nH]c(C(=O)N2CCCN(c3ncnc4[nH]ccc34)CC23CC3)c1 [Example 209, 5-[5-(7H-pyrrolo[2,3-d]pyrimidin-4-yl)-5,9-diazaspiro[2.6]nonane-9-carbonyl]-1H-pyrrole-3-carbonitrile] | < 100 nM | < 100 nM | < 100 nM | < 100 nM
17 | O=C(c1ccc[nH]1)N1CCCN(c2ncnc3[nH]ccc23)CC12CC2 [Example 255, [5-(7H-pyrrolo[2,3-d]pyrimidin-4-yl)-5,9-diazaspiro[2.6]nonan-9-yl]-(1H-pyrrol-2-yl)methanone] | 100 to 1000 nM | 100 to 1000 nM | < 100 nM | < 100 nM
18 | Nc1nonc1C(=O)N1CCCN(c2ncnc3[nH]ccc23)CC12CC2 [Example 256, (4-amino-1,2,5-oxadiazol-3-yl)-[5-(7H-pyrrolo[2,3-d]pyrimidin-4-yl)-5,9-diazaspiro[2.6]nonan-9-yl]methanone] | < 100 nM | 100 to 1000 nM | < 100 nM | < 100 nM
19 | N#Cc1ccc(C(=O)N2CCCN(c3ncnc4[nH]ccc34)CC23CC3)o1 [Example 258, 5-[5-(7H-pyrrolo[2,3-d]pyrimidin-4-yl)-5,9-diazaspiro[2.6]nonane-9-carbonyl]furan-2-carbonitrile] | 100 to 1000 nM | 100 to 1000 nM | < 100 nM | < 100 nM
20 | Cc1ccc(CC(=O)N2CCN(c3ncnc4[nH]ccc34)CC3(CC3)C2)cc1 [Example 263] | 100 to 1000 nM | 100 to 1000 nM | < 100 nM | < 100 nM
21 | O=C(Cc1ccc(Br)cc1)N1CCN(c2ncnc3[nH]ccc23)CC2(CC2)C1 [Example 264, 2-(4-bromophenyl)-1-[5-(7H-pyrrolo[2,3-d]pyrimidin-4-yl)-5,8-diazaspiro[2.6]nonan-8-yl]ethanone] | < 100 nM | 100 to 1000 nM | < 100 nM | < 100 nM
22 | O=C(Cc1ccc(C(F)(F)F)cc1)N1CCN(c2ncnc3[nH]ccc23)CC2(CC2)C1 [Example 271, 1-[5-(7H-pyrrolo[2,3-d]pyrimidin-4-yl)-5,8-diazaspiro[2.6]nonan-8-yl]-2-[4-(trifluoromethyl)phenyl]ethanone] | 100 to 1000 nM | 100 to 1000 nM | < 100 nM | < 100 nM
23 | O=C(Cc1ccc(OC(F)(F)F)cc1)N1CCN(c2ncnc3[nH]ccc23)CC2(CC2)C1 [Example 274, 1-[5-(7H-pyrrolo[2,3-d]pyrimidin-4-yl)-5,8-diazaspiro[2.6]nonan-8-yl]-2-[4-(trifluoromethoxy)phenyl]ethanone] | 100 to 1000 nM | > 1000 nM | < 100 nM | < 100 nM
24 | Cc1c[nH]c(C(=O)N2CCCN(c3ncnc4[nH]ccc34)CC23CC3)c1 [Example 277, (4-methyl-1H-pyrrol-2-yl)-[5-(7H-pyrrolo[2,3-d]pyrimidin-4-yl)-5,9-diazaspiro[2.6]nonan-9-yl]methanone] | 100 to 1000 nM | 100 to 1000 nM | < 100 nM | < 100 nM
25 | Cc1[nH]c(C(=O)N2CCCN(c3ncnc4[nH]ccc34)CC23CC3)cc1C#N [Example 278, 2-methyl-5-[5-(7H-pyrrolo[2,3-d]pyrimidin-4-yl)-5,9-diazaspiro[2.6]nonane-9-carbonyl]-1H-pyrrole-3-carbonitrile] | 100 to 1000 nM | 100 to 1000 nM | < 100 nM | < 100 nM
26 | CCCCN1CCN(c2ncnc3[nH]ccc23)CC2(CC2)C1 [Example 279, 4-(5-butyl-5,8-diazaspiro[2.6]nonan-8-yl)-7H-pyrrolo[2,3-d]pyrimidine] | > 1000 nM | > 1000 nM | > 1000 nM | > 1000 nM
